Source: ChEMBL document CHEMBL1133542, “Adenosine deaminase inhibitors: synthesis and biological evaluation of unsaturated, aromatic, and oxo derivatives of (+)-erythro-9-(2'S-hydroxy-3'R-nonyl)adenine [(+)-EHNA]” (J Med Chem, 2000)
pKi: −log10 of the molar value.

Target: T1, Adenosine deaminase (Bos taurus, UniProt P56658)
T1 sequence (P56658 whole entry): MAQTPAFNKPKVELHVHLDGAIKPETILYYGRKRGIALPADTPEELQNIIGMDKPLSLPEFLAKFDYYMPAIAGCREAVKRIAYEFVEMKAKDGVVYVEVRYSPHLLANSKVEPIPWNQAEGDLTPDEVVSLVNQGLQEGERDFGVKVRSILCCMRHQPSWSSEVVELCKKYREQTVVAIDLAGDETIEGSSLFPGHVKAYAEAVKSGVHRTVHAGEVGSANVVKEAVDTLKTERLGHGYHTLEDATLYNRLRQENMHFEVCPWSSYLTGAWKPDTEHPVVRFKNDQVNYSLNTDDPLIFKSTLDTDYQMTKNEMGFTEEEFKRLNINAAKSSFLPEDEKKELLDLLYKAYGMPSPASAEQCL
Description: Inhibition of Adenosine deaminase (ADA) of calf intestine

## CCCCOC[C@H]([C@H](C)O)n1cnc2c(N)ncnc21
  pKi: 6.91

## C[C@H](O)[C@@H](COCCc1ccccc1)n1cnc2c(N)ncnc21
  pKi: 7.03
